Results filed as inconclusive are left out.

In the assay the target is Virion infectivity factor (Human immunodeficiency virus type 1 group M subtype B (isolate BH10)) + Virion infectivity factor (Human immunodeficiency virus type 1 group M subtype B (isolate BRU/LAI)) + Virion infectivity factor (Human immunodeficiency virus type 1 group M subtype B (isolate PCV12)) + Virion infectivity factor (Human immunodeficiency virus type 1 group M subtype B (isolate HXB2)) + DNA dC->dU-editing enzyme APOBEC-3G (Homo sapiens) (UniProt P69720+P69721+P69722+P69723+Q9HC16). The experiment in a line: inhibitors of Vif binding to APOBEC3G peptide, primary screen, biochemical, TR-FRET, GST-Vif 1-94, biotin-A3G peptide, dose response retest (AID 1117319).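 Further: Vif residues 1-94 fused to GST binding biotinylated APOBEC3G peptide 110-148.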
Regarding `C=CCSC1=N/C(=C\C=C\c2ccco2)C(=O)S1`, the IC50 (as a rule, the point on the concentration scale where inhibition reaches its midpoint) was 1.05 µM.
For `CC(=C/c1ccco1)/C=N/NC(=O)Cc1cccn1C`, the IC50 was 1.91 µM.
As for `CN1CCN(C2=C(Cl)C(=O)c3ccccc3C2=O)CC1`, the IC50 is 4.42 µM.
The result for `CCN(CC)Cc1cc(Nc2c3ccccc3nc3c4ccccc4n(C)c23)cc(CN(CC)CC)c1O` reads 10.9 µM.
Take `O=C(O)c1ccc(Sc2nnnn2-c2ccccc2)c([N+](=O)[O-])c1`: the IC50 was 89.9 µM.
`Cc1ccc(N2C(=O)/C(=C\c3ccco3)SC2=S)cc1`: the IC50 was 7.72 µM.
The result for `COc1cc(NC(=O)CS(=O)(=O)c2ccc(C)cc2)cc(OC)c1OC` reads 23.3 µM; that for `Cc1cccc(C)c1NC(=O)CSc1nnc(-c2ccco2)c(-c2ccco2)n1`, 2.05 µM.
For `CCOc1cccc(=O)c2c(C)n(CC(=O)c3ccccc3)c(C)c12` the value was 8.28 µM; for `CCOC(=O)C1CCN(Cc2cnc(Oc3ccc(OC)cc3)s2)CC1`, 80.9 µM; for `O=C1CC(Nc2ccc(N3CCOCC3)cc2)C(=O)N1c1ccccc1F` (centres undefined), 1.65 µM.
For `Cc1c(Cl)cccc1NS(=O)(=O)c1ccc2c(c1)C1C=CCC1C(c1ccc(C(=O)O)cc1)N2` (centres undefined) the value was 2.54 µM; for `C=CCN1C(=O)/C(=C\c2ccco2)C(C(=O)OC)=C1C`, 14.1 µM; for `COc1ccc(NC(=O)CCCSc2ccccc2)cc1`, 47.3 µM.
As to `O=C(O)/C(=C/c1ccco1)NC(=O)c1ccccc1`, the IC50 is 19.4 µM.
The result for `CCCCC(=O)NC(=S)Nc1cc(C(=O)O)ccc1Cl` reads 16 µM; that for `O=C(OC1CCCCC1)c1ccc2c(c1)C1C=CCC1C(C(=O)O)N2` (centres undefined), 0.51 µM; that for `CN1CCN(c2ccc(N)cc2)CC1`, 15.6 µM.
On to `O=C1NC(c2ccc(Br)cc2)=N/C1=C/c1ccco1`, for which the IC50 was 7.41 µM.
The result for `COc1cc(C(=O)NCC(c2ccco2)N2CCCC2)ccc1OCc1c(C)noc1C` (centres undefined) reads 99.2 µM.
For `CC(C)CNC1=CC(=O)CC(c2ccco2)C1` (centres undefined) the value was 3.75 µM; for `CC1=Nc2cccc3cccc(c23)N1`, 0.53 µM.
Consider `COc1cccc2c1NC(C(=O)O)C1CC=CC21` (centres undefined), for which the IC50 was below 0.398 µM.
As to `CCOC(=O)C1=C(N)n2c(s/c(=C\c3ccco3)c2=O)=C(C(=O)OCC)C1c1ccco1` (centres undefined), the IC50 was 1.41 µM.
For `Cn1cccc1/C=C1/C(=O)NC(=O)N(Cc2ccccc2)C1=O` the value was 3.33 µM.
Take `COc1ccc2[nH]c3c4c(ccc3c2c1)C(=O)C=CC4=O`: the IC50 is 1.42 µM.
As for `C=CCN=c1scc(C)n1/N=C/c1ccc(O)c(O)c1`, the concentration for half-maximal inhibition (IC50) is 15.4 µM.
The result for `O=C1NC(=S)S/C1=C\c1ccc(SCc2ccco2)o1` reads 0.81 µM; that for `Cc1ccc(C(=O)O)cc1-c1ccc(/C=C2/NC(=O)N(c3ccccc3)C2=O)o1`, 25.5 µM.
The result for `COC/C=C/C1=CC2=CC(=O)C(C)(OC(=O)c3cnc4ccccc4n3)C(=O)C2=CN1c1ccccc1` (centres undefined) reads 2.74 µM; that for `CC(CNc1ccccc1O)C(=O)O` (centres undefined), 6.17 µM; that for `O=C1NC(=S)N(c2ccccc2)C(=O)/C1=C/c1ccco1`, 9.42 µM.
For `COc1ccc(-c2nc3ccccc3n2OC(=O)N(C)C)cc1` the value was 42.9 µM; for `COc1cc2c(cc1OC)C(=O)C(Br)CC2` (centres undefined), 1.48 µM.
For `CN(C)[C@@H]1C(=O)C(C(N)=O)=C(O)[C@@]2(O)C(=O)C3=C(O)c4c(O)ccc(Cl)c4[C@@](C)(O)C3C[C@@H]12` (some centres undefined), the IC50 is 7.02 µM.
With `O=C(N/N=C/c1cn(Cc2cccc(F)c2)c2ccccc12)c1cc(O)cc(O)c1`, the IC50 was 3.48 µM.
The result for `O=C(Nc1ccc2nc(-c3ccco3)c(-c3ccco3)nc2c1)NC1CC1` reads 0.3 µM; that for `CCc1cccc(NC(=O)CCS(=O)(=O)c2ccc(Br)cc2)c1`, 14.7 µM; that for `COc1cc2c(cc1OC)C(C)N(C(=O)c1cc3n(n1)C(C(F)(F)F)CC(c1ccco1)N3)CC2` (centres undefined), 27.8 µM.
The result for `CCOC(=O)c1cc([N+](=O)[O-])cc([N+](=O)[O-])c1Sc1ncnc2nc[nH]c12` reads 69.6 µM.
`O=C1C2CCCN2C(c2cccs2)N1c1ccccn1` (centres undefined): the IC50 was 82 µM.
The result for `COc1ccc2c(c1)n([O-])c1c([n+]2=O)CCC1` reads 5.16 µM; that for `O=C(O)CSc1c2c(nc3cc(C(=O)Nc4cccc(C(F)(F)F)c4)ccc13)CCC2`, 13.4 µM.
With `O=C(NCCS(=O)CCNC(=O)C(F)(F)F)C(F)(F)F`, the IC50 is 95 µM.
`Cc1nccn1CC(=O)N/N=C/c1ccc(O)c(O)c1`: the IC50 is 23.2 µM.
`CCN(CC)c1ccc(C=Nc2ccc(N(C)C)cc2)c(O)c1`: the IC50 is 35.7 µM.
For `O=C1N=C(N2CCOCC2)SC1=Cc1ccco1` the value was 92.5 µM.
For `Cc1ccc2c(c1)c(=O)c1c3n2CCN(C(=O)CCl)C3CC1` (centres undefined) the value was 10.8 µM; for `CC(C)C(=O)Nc1nnc(Sc2ccc(N(C)C)cc2)s1`, 54.8 µM; for `Nc1ccccc1NC1=CC(=O)CC(c2ccco2)C1` (centres undefined), 49.4 µM.
`NC(=O)c1ccc(N2CCN(c3ccc(O)cc3)CC2)c([N+](=O)[O-])c1`: the IC50 is 7.08 µM.
The result for `COc1ccc(OC)c(C2C(C(=O)Nc3ccc(F)cc3)=C(C)Nc3nc(CCCO)nn32)c1` (centres undefined) reads 54.6 µM; that for `Cc1cc(SCC2=NNC(=O)C2)c(Cl)cc1Cl`, 63.2 µM.
Take `CCN(CC)c1ccc(N=Cc2ccc(N(CC)CC)cc2O)cc1`: the IC50 was 50.7 µM.
For `O=C(CN1C(=O)NC2(CCCCCCC2)C1=O)NCc1cccs1` the value was 11.1 µM.
For `Clc1ccc(OCc2nn3c(-c4ccco4)nnc3s2)c(Cl)c1` the value was 63.1 µM; for `C/C(=N\O)C(=O)NCc1ccccn1`, 77.5 µM; for `O=C1Cc2cccc(=O)c(O)c2C(=O)O1`, 14 µM.
The result for `O=C1CCCC(O)=C1N=Nc1ccc(S(=O)(=O)N2CCOCC2)cc1` reads 6.66 µM.
`Cc1nc(C)c(C(=O)Nc2nc3c(C)cccc3s2)o1`: the IC50 was 32 µM.
Take `CN1CCC(N(C)C(=O)COc2ccccc2-c2ccccc2)CC1`: the 50% inhibitory concentration (IC50) is 10.8 µM.
The result for `CC(=O)NCc1c(Cl)cccc1-n1cccc1` reads 72.7 µM; that for `CN1C(=O)/C(=C/c2ccco2)SC1=Nc1cccc(C(=O)O)c1`, 19 µM.
For `Cc1nc2ccccc2n2c(O)c(CC(=O)O)cc12` the value was 30.2 µM; for `COc1ccc(/C=N/NC(=O)c2cc(O)c(O)c(O)c2)cc1Cn1cc([N+](=O)[O-])cn1`, 1.07 µM.
In the case of `Cc1ccc(NC(=O)CCCCCC2NC(=O)NC2C)cc1` (centres undefined), the IC50 was 0.71 µM.
In the case of `O=C(/C=C/c1ccco1)NC(=S)Nc1ccccc1N1CCOCC1`, the IC50 was 11.5 µM.
The result for `CCOC(=O)COc1nc(-c2ccco2)cc(-c2ccco2)c1C#N` reads 5.83 µM.
The result for `O=C(/C(=N/N=C/c1ccc(O)c(O)c1O)c1ccccc1)c1ccccc1` reads 3.15 µM; that for `COc1ccccc1CNC(=O)COC(=O)c1cc(-c2ccco2)nc2ccccc12`, 9.99 µM; that for `Oc1ccc(/C=N/N2CCOCC2)c(O)c1O`, 12.5 µM.
For `COc1ccccc1-n1c(-c2cc(-c3ccco3)[nH]n2)n[nH]c1=S`, the IC50 was 3.11 µM.
For `CC1=Nc2nc(N3CCCCC3)c(C#N)c3c4c(nc(c23)N1)N(c1ccc(C(C)C)cc1)C(=O)C4` the value was 5.27 µM; for `Oc1ccc(/C=C/c2cc(O)cc(O)c2)cc1`, 25.3 µM.

Values taken from PubChem BioAssay AID1117319 (Southern Research Institute, 2015).
